{"source": "patent US20190014806A1", "about": "“Composition to Reduce the Negative Effects of Alcohol Consumption” (priority 2017, published 2019)", "tested_on": "drosophila", "assay": "alcohol sedation model: recovery of drosophila after acute alcohol exposure", "assay_type": "in vivo", "conditions": "FIG. 1; acute alcohol exposure over time; agents in fly food at least two days before exposure", "description": "This invention used a modified version of the alcohol sedation model disclosed by Sandhu et al to evaluate the effects of acute alcohol exposure in drosophila. For example, in one of the models, for at least two days prior to alcohol exposure, drosophila consumed standard fly food combined with placebo or investigational agents. The drosophila were then moved to empty, foam stopper-covered vials and allowed to acclimate before the foam stoppers were injected with 1 ml 100% ethanol. At different time intervals, it was noted how many drosophila in each vial lost consciousness. […] The average recovery score was calculated by averaging the recovery scores of individual drosophila. Increasing the extent of alcohol exposure led to greater alcohol toxicity, including substantial death. In the following examples, a modified version of the alcohol sedation model employed by Sandhu et al. (“An Inexpensive, Scalable Behavioral Assay for Measuring Ethanol Sedation Sensitivity and Rapid Tolerance in Drosophila,” J Vis Exp. Author manuscript; available in PMC 2016 Apr. 15) to evaluate the effects of acute alcohol exposure was used. For at least two days prior to alcohol exposure, flies consumed standard fly food combined with placebo or investigational agents. […] The average recovery score is calculated by averaging the recovery scores of individual flies. […]", "data": [{"smiles": "NCCS(=O)(=O)O", "note": "[taurine]", "values": [{"measurement": "recovery from consumption of alcohol in comparison with no taurine added (placebo)", "result": "accelerates recovery from consumption of alcohol"}]}]}
